# Results: ChEMBL document CHEMBL3297643, “Chemical constituents from Eucalyptus citriodora Hook leaves and their glucose transporter 4 translocation activities” (Bioorg Med Chem Lett, 2014)
# Active and inactive are the calls of the source. The calls are words filed in the database; no cut-off is given here.
# Biological target: T1, Solute carrier family 2, facilitated glucose transporter member 4 (Rattus norvegicus) (UniProt P19357)
# T1 sequence (whole entry): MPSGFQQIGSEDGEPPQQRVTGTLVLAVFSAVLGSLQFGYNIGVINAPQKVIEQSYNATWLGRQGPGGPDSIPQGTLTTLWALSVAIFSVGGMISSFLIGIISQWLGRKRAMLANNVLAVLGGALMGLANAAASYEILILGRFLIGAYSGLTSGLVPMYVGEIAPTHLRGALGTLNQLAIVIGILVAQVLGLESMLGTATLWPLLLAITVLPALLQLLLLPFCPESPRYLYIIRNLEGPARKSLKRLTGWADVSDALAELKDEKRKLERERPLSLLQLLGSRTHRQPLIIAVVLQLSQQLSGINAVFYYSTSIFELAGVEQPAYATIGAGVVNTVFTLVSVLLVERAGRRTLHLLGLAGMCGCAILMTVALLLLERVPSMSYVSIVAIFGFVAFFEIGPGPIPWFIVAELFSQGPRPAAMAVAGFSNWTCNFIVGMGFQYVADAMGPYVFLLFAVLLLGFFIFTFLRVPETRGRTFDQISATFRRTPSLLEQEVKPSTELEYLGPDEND
# Test: Enhancement of GLUT4 translocation in rat L6 cells expressing pIRAP-mOrange cDNAs at 10 uM after 10 mins by fluorescence assay relative to control
# Format: cell-based
Compound,fold change (FC),Activity
C[C@H]1[C@H](C)CC[C@]2(C(=O)O)CC[C@]3(C)C(=CC[C@@H]4[C@@]5(C)C[C@@H](O)[C@H](O)C(C)(C)[C@@H]5CC[C@]43C)[C@H]12,1.78,–
O=c1c(OC2O[C@H](CO)[C@@H](O)[C@H](O)[C@H]2O)c(-c2cc(O)c(O)c(O)c2)oc2cc(O)cc(O)c12 (some centres not stated),–,inactive
CC1(C)CC[C@]2(C(=O)O)CC[C@]3(C)C(=CC[C@@H]4[C@@]5(C)CC[C@H](O)C(C)(C)[C@@H]5CC[C@]43C)[C@@H]2C1,0.7,–
C[C@H]1[C@H](C)CC[C@]2(C(=O)O)CC[C@]3(C)C(=CC[C@@H]4[C@@]5(C)CC[C@H](O)C(C)(C)[C@@H]5CC[C@]43C)[C@H]12,0.7,–
C[C@H]1[C@H](C)CC[C@]2(C(=O)O)CC[C@]3(C)C(=CC[C@@H]4[C@@]5(C)C[C@@H](O)[C@H](O)[C@@](C)(CO)[C@@H]5[C@H](O)C[C@]43C)[C@H]12,0.7,–
C[C@H]1[C@H](C)CC[C@]2(C(=O)O)CC[C@]3(C)C(=CC[C@@H]4[C@@]5(C)C[C@@H](O)[C@H](O)[C@@](C)(CO)[C@@H]5CC[C@]43C)[C@H]12,0.47,–
CC(C)CC1C2=C(Oc3cc(O)c(C(=O)CCc4ccccc4)c(O)c31)C(C)(C)C(=O)C(C)(C)C2=O (racemic),0.49,–
O=C1c2c(O)cc(O)cc2O[C@@H](c2ccc(O)cc2)[C@@H]1O,–,inactive
C[C@@H]1CC[C@]2(C(=O)O)CC[C@]3(C)C(=CC[C@@H]4[C@@]5(C)C[C@@H](O)[C@@H](O)C(C)(C)[C@@H]5CC[C@]43C)[C@@H]2[C@]1(C)O,0.7,–
O=C(O)c1cc(O)c(O)c(O)c1,–,inactive
O=c1c(O[C@@H]2O[C@H](CO)[C@@H](O)[C@H](O)[C@H]2O)c(-c2ccc(O)c(O)c2)oc2cc(O)cc(O)c12,–,inactive
C=C(C)[C@@H]1CC[C@]2(C(=O)O)CC[C@]3(C)[C@H](CC[C@@H]4[C@@]5(C)CC[C@H](O)C(C)(C)[C@@H]5CC[C@]43C)[C@@H]12,2.38,–
